We go through 33 compounds from patent publication US10654814B2, “Bicyclic hydroxamic acids useful as inhibitors of mammalian histone deacetylase activity” (KANCERA AB, priority 2015, dated 2020).

Format in all cases: biochemical
The target of one experiment is HDAC1 (Homo sapiens (Human), UniProt Q13547). The experiment in a line: HDAC1 in vitro enzymatic assay (fluorescence). The settings on record: Table 4 selectivity profiling. How it is done: (§1) Biological Tests Method for Measurement of Enzymatic Activity of HDACs Materials & Methods
(§2) All Examples were tested in HDAC1,2,3,6 and 8 in vitro enzymatic assays. The assay principle is well known (Hauser et al. 2009, Bradner et al. 2010) and all necessary reagents like enzymes, substrates, developer and reference compounds are commercially available (see e.g. BPS Biosciences http://www.bpsbioscience.com/). Stock solutions (10 mM in DMSO) of compounds were serially diluted 1:3 in 11 concentrations with a top concentration of 200 μM for HDAC1,2,3 and 2 μM for HDAC6 and HDAC8. The enzymatic reactions were conducted in a mixture containing assay buffer, bovine serum albumin, HDAC substrate, and a test compound. After enzymatic reaction, developer was added and after an additional incubation time, fluorescence intensity was measured at an excitation wavelength of 360 nm and an emission wavelength of 460 nm. All experiments were performed in duplicate.

A further experiment deals with HDAC2 (Homo sapiens (Human), UniProt Q92769). The experiment in a line: HDAC2 in vitro enzymatic assay (fluorescence). Particulars: Table 4 selectivity profiling. The protocol: as §1, §2
The target of another experiment is HDAC3 (Homo sapiens (Human), UniProt O15379). Put plainly: HDAC3 in vitro enzymatic assay (fluorescence). Particulars: Table 4 selectivity profiling. How it is done: as §1, §2
Another experiment concerns the target HDAC8 (Homo sapiens (Human), UniProt Q9BY41). The experiment in a line: HDAC8 in vitro enzymatic assay (fluorescence). The settings on record: Table 4 selectivity profiling. How it is done: as §1, §2
Another experiment addresses HDAC6 (Homo sapiens (Human), UniProt Q9UBN7). Put plainly: HDAC6 in vitro enzymatic assay (fluorescence). The protocol: as §1, §2
[1] abbreviates: Table 3, read-out: IC50 (nM) for inhibition of HDAC6.
Where [2] appears, read: Table 4 selectivity profiling, read-out: IC50 (nM) HDAC6.

Structures can show the parent of a compound that is named as a salt. Where two headings read alike, the source gives them in different places.

HDAC3, sequence (O15379 whole entry): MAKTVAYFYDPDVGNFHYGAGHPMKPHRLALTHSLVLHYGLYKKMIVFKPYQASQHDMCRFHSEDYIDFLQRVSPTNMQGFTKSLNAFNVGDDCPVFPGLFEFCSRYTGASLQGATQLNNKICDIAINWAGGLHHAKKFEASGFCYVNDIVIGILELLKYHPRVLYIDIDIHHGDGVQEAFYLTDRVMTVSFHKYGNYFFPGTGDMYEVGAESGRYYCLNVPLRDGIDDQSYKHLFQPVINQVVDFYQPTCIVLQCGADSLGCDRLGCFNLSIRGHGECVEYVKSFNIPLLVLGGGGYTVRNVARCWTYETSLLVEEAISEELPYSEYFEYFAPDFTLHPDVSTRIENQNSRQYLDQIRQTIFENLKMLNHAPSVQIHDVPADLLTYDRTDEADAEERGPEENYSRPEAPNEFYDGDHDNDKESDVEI
HDAC3, sequence (Q9Y618 395-489 partner): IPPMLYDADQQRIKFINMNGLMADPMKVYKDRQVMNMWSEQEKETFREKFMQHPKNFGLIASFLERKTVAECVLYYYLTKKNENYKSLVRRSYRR
HDAC6, sequence (Q9UBN7 whole entry): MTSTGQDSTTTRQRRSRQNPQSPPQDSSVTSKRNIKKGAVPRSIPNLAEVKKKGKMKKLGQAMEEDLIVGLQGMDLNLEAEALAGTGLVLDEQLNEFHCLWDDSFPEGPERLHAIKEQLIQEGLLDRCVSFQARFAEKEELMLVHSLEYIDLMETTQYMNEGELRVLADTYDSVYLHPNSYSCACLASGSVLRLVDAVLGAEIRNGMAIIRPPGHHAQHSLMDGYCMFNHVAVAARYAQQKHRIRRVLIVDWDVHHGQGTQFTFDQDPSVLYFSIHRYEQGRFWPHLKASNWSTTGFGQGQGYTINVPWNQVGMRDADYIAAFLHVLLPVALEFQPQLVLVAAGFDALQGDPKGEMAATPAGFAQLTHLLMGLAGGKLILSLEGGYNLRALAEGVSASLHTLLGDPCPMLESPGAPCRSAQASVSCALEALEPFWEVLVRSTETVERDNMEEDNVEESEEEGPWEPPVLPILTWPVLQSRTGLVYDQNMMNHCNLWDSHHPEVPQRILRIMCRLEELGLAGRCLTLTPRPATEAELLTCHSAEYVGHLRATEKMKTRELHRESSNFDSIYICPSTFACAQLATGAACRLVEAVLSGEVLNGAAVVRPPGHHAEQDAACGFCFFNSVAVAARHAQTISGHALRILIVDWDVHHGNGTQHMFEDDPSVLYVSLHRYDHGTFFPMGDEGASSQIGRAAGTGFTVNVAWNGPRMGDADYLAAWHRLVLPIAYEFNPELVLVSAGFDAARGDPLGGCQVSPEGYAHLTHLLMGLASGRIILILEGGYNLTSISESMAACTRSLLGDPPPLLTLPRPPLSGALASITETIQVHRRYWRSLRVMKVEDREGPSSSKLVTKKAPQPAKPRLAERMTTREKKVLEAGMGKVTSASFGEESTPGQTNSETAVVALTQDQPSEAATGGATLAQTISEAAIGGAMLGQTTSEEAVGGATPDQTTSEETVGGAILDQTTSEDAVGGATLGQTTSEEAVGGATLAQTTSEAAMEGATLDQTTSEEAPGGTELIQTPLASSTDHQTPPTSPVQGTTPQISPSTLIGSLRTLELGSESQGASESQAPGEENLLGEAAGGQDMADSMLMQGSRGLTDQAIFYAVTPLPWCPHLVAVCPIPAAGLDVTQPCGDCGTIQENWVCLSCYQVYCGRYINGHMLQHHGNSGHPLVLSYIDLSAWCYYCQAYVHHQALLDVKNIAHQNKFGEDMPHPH
HDAC8, sequence (Q9BY41 whole entry): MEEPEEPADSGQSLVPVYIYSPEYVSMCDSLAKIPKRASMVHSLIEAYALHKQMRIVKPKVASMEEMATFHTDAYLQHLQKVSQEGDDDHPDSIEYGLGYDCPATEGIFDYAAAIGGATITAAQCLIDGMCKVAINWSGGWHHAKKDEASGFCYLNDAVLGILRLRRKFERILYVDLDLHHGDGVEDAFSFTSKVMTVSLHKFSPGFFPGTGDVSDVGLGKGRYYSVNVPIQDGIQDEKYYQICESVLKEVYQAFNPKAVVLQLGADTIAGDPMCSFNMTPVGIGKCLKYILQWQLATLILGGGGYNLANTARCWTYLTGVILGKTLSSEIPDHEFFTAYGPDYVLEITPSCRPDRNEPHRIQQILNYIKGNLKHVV
HDAC2, sequence (Q92769 whole entry): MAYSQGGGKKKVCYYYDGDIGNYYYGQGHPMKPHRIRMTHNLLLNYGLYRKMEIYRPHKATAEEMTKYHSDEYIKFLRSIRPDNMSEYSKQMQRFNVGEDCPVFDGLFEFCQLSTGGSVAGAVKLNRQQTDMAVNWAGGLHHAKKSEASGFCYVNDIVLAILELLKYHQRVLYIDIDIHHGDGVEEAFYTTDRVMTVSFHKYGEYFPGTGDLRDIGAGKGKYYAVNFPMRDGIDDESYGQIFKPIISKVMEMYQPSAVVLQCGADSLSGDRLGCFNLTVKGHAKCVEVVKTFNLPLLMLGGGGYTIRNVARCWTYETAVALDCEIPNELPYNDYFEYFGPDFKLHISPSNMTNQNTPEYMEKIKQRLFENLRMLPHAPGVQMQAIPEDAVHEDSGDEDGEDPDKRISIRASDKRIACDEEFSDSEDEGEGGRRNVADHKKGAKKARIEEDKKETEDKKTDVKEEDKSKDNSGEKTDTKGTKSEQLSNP
HDAC1, sequence (Q13547 whole entry): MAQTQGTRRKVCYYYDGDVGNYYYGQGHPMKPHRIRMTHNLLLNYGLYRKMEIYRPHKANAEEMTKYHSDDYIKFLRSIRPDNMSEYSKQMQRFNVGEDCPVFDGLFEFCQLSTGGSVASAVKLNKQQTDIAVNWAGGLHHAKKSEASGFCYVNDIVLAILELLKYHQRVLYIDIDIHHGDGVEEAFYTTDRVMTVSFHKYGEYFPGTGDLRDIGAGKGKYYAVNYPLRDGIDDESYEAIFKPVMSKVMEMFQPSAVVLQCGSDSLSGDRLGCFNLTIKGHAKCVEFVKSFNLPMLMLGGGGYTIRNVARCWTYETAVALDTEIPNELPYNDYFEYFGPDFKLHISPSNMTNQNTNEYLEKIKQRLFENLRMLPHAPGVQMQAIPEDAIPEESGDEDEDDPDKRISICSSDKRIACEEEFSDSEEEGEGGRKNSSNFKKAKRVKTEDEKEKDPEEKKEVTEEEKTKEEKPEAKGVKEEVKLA

For the compound `COc1cccc(-c2cc3ccc(C(=O)NO)cc3o2)c1` [Example 285, N-hydroxy-2-(3-methoxyphenyl)-1-benzofuran-6-carboxamide], the half-maximal inhibitory concentration (IC50) against HDAC1 is 470 nM; at HDAC2 it was 6900 nM; at HDAC3, 640 nM; at HDAC8, 210 nM; at HDAC6 (setting [1]) it was 4 nM; on HDAC6 (setting [2]), 4 nM.

In the case of `CCN(CC)Cc1cc2ccc(C(=O)NO)cc2o1` [Example 117, 2-[(Diethylamino)methyl]-N-hydroxy-1-benzofuran-6-carboxamide trifluoroacetate], the half-inhibitory concentration (IC50) amounted to 19000 nM on HDAC1; 69000 nM at HDAC2; 25000 nM on HDAC3; 1400 nM at HDAC8; 64 nM at HDAC6 (setting [1]); 26 nM on HDAC6 (setting [2]).

In the case of `O=C(NO)c1ccc2sc(-c3cccnc3)cc2c1` [Example 96, N-hydroxy-2-pyridin-3-yl-1-benzothiophene-5-carboxamide], the IC50 on HDAC1 was found to be 9700 nM; against HDAC2, 55000 nM; on HDAC3 it was 7200 nM; against HDAC8 it was 960 nM; at HDAC6 (setting [1]) it was 64 nM; at HDAC6 (setting [2]) it was 64 nM.

On to `O=C(NO)c1ccc2oc(-c3ccccc3Cl)nc2c1` [Example 12, 2-(2-chlorophenyl)-N-hydroxy-1,3-benzoxazole-5-carboxamide], for which the IC50 was found to be 1200 nM against HDAC1; 52000 nM on HDAC2; 560 nM on HDAC3; 880 nM against HDAC8; 5 nM at HDAC6 (setting [1]); 5 nM on HDAC6 (setting [2]).

For `O=C(NO)c1ccc2nc(Nc3cccc(OCc4ccccc4)c3)[nH]c2c1` [Example 132, 2-((3-(benzyloxy)phenyl)amino)-N-hydroxy-1H-benzo[d]imidazole-6-carboxamide], the IC50 against HDAC1 came out at 1200 nM; against HDAC2, 24000 nM; at HDAC3, 370 nM; at HDAC8, 240 nM; on HDAC6 (setting [1]), 17 nM; on HDAC6 (setting [2]), 17 nM.

As for `O=C(NO)c1ccc2oc(-c3ccc(C(F)(F)F)cc3)nc2c1` [Example 18, N-hydroxy-2-[4-(trifluoromethyl)phenyl]-1,3-benzoxazole-5-carboxamide], the IC50 was 2000 nM at HDAC1; 11000 nM on HDAC2; 1600 nM on HDAC3; 1300 nM on HDAC8; 37 nM at HDAC6 (setting [2]).

Take `O=C(NO)c1ccc2nc(-c3cccc4cccnc34)sc2c1` [Example 70, N-hydroxy-2-quinolin-8-yl-1,3-benzothiazole-6-carboxamide]: the IC50 against HDAC1 was found to be 6100 nM; against HDAC2, 19000 nM; on HDAC3, 2300 nM; against HDAC8, 320 nM; at HDAC6 (setting [2]), 65 nM.

Regarding `O=C(NO)c1ccc2oc(-c3ccc(C4CC4)cc3)nc2c1` [Example 29, 2-(4-Cyclopropylphenyl)-N-hydroxy-1,3-benzoxazole-5-carboxamide], the IC50 came to 2100 nM on HDAC1; 10000 nM at HDAC2; 1000 nM at HDAC3; 1400 nM on HDAC8; 10 nM at HDAC6 (setting [1]); 10 nM on HDAC6 (setting [2]).

For `O=C(NO)c1ccc2oc(Nc3ccccc3)nc2c1` [Example 42, N-Hydroxy-2-(phenylamino)-1,3-benzoxazole-5-carboxamide], the IC50 on HDAC6 (setting [1]) was 14 nM.

Regarding `CC(C)c1ccc(-c2nc3ccc(C(=O)NO)cc3o2)cc1` [Example 49, N-Hydroxy-2-[4-(1-methylethyl)phenyl]-1,3-benzoxazole-6-carboxamide], on HDAC6 (setting [1]), the 50% inhibitory concentration (IC50) was 9 nM.

In the case of `O=C(NO)c1ccc2oc(-c3ccc(-c4ccccc4)cc3F)nc2c1` [Example 173, 2-(3-Fluorobiphenyl-4-yl)-N-hydroxy-1,3-benzoxazole-5-carboxamide], the IC50 at HDAC6 (setting [1]) was found to be 20 nM.

With `O=C(NO)c1ccc2sc(-c3cc(F)ccc3O)cc2c1` [Example 105, 2-(5-fluoro-2-hydroxyphenyl)-N-hydroxy-1-benzothiophene-5-carboxamide], the IC50 at HDAC6 (setting [1]) is 37 nM.

For the compound `O=C(NO)c1ccc2oc(-c3ccc(F)c(F)c3)nc2c1` [Example 5, 2-(3,4-difluorophenyl)-N-hydroxy-1,3-benzoxazole-5-carboxamide], the concentration for half-maximal inhibition (IC50) on HDAC6 (setting [1]) is 36 nM.

Regarding `CCc1ccc(-c2nc3cc(C(=O)NO)ccc3s2)cc1` [Example 82, 2-(4-Ethylphenyl)-N-hydroxy-1,3-benzothiazole-5-carboxamide], the IC50 at HDAC6 (setting [1]) was 11 nM.

In the case of `O=C(NO)c1ccc2oc(-c3ccc(N4CCOCC4)nc3)nc2c1` [Example 15, N-hydroxy-2-(6-morpholin-4-ylpyridin-3-yl)-1,3-benzoxazole-5-carboxamide], the IC50 on HDAC6 (setting [1]) stood at 28 nM.

As to `CC(C)c1ccc(-c2nc3cc(C(=O)NO)cnc3o2)cc1` [Example 83, N-Hydroxy-2-[4-(1-methylethyl)phenyl][1,3]oxazolo[5,4-b]pyridine-6-carboxamide], on HDAC6 (setting [1]), the half-maximal inhibitory concentration (IC50) stood at 25 nM.

Turning to `O=C(NO)c1ccc2oc(-c3ccc(-c4cccnc4)cc3F)nc2c1` [Example 175, 2-(2-fluoro-4-pyridin-3-ylphenyl)-N-hydroxy-1,3-benzoxazole-5-carboxamide], at HDAC6 (setting [1]), the 50% inhibitory concentration (IC50) was 34 nM.

As to `O=C(NO)c1ccc2oc(-c3ccc(-c4ccncc4)cc3)nc2c1` [Example 22, N-hydroxy-2-(4-pyridin-4-ylphenyl)-1,3-benzoxazole-5-carboxamide], the IC50 at HDAC6 (setting [1]) came to 13 nM.

Regarding `CC(C)c1ccc(-c2cc3cc(C(=O)NO)cnc3s2)cc1` [Example 87, N-Hydroxy-2-[4-(1-methylethyl)phenyl]thieno[2,3-b]pyridine-5-carboxamide], the IC50 on HDAC6 (setting [1]) came to 42 nM.

In the case of `CC(C)c1ccc(-c2nc3cc(C(=O)NO)ccc3o2)cc1F` [Example 211, 2-[3-Fluoro-4-(1-methylethyl)phenyl]-N-hydroxy-1,3-benzoxazole-5-carboxamide], the 50% inhibitory concentration (IC50) at HDAC6 (setting [1]) was 38 nM.

As to `Cn1c(N2CCC(Cc3ccccc3)CC2)nc2cc(C(=O)NO)ccc21` [Example 143, 2-(4-benzylpiperidin-1-yl)-N-hydroxy-1-methyl-1H-benzo[d]imidazole-5-carboxamide], the half-maximal inhibitory concentration (IC50) at HDAC6 (setting [1]) was 7 nM.

Regarding `COc1ccccc1N1CCN(c2ccc(-c3nc4cc(C(=O)NO)ccc4o3)cn2)CC1` [Example 160, N-hydroxy-2-{6-[4-(2-methoxyphenyl)piperazin-1-yl]pyridin-3-yl}-1,3-benzoxazole-5-carboxamide trifluoroacetate], on HDAC6 (setting [1]), the half-maximal inhibitory concentration (IC50) stood at 21 nM.

With `C[C@@H]1CN(Cc2cccc(-c3nc4cc(C(=O)NO)ccc4o3)c2)C[C@H](C)O1` [Example 202, 2-(3-{[(cis)-2,6-dimethylmorpholin-4-yl]methyl}phenyl)-N-hydroxy-1,3-benzoxazole-5-carboxamide trifluoroacetate], the IC50 at HDAC6 (setting [1]) amounted to 53 nM.

As for `O=C(NO)c1ccc2sc(-c3ccc4[nH]ccc4c3)cc2c1` [Example 95, N-hydroxy-2-(1H-indol-5-yl)-1-benzothiophene-5-carboxamide], the IC50 at HDAC6 (setting [1]) stood at 22 nM.

As to `CC(C)c1ccc(Nc2nc3cc(C(=O)NO)ccc3n2C)cc1` [Example 138, N-hydroxy-2-((4-isopropylphenyl)amino)-1-methyl-1H-benzo[d]imidazole-5-carboxamide], the IC50 on HDAC6 (setting [1]) was found to be 22 nM.

`O=C(NO)c1ccc2sc(-c3cncc(Br)c3)nc2c1` [Example 80, 2-(5-Bromopyridin-3-yl)-N-hydroxy-1,3-benzothiazole-5-carboxamide]: the IC50 at HDAC6 (setting [1]) turned out to be 30 nM.

`C[C@@H]1CN(Cc2ccc(-c3nc4cc(C(=O)NO)ccc4o3)cc2)C[C@H](C)O1` [Example 207, 2-(4-{[(cis)-2,6-dimethylmorpholin-4-yl]methyl}phenyl)-N-hydroxy-1,3-benzoxazole-5-carboxamide trifluoroacetate]: the half-inhibitory concentration (IC50) on HDAC6 (setting [1]) amounted to 73 nM.

For `CS(=O)(=O)Nc1ccc(-c2cc3cc(C(=O)NO)ccc3s2)cc1` [Example 109, N-hydroxy-2-{4-[(methylsulfonyl)amino]phenyl}-1-benzothiophene-5-carboxamide], the half-inhibitory concentration (IC50) at HDAC6 (setting [1]) came out at 86 nM.

For the compound `CC(C)(C)c1ccc(-c2nc3ccc(C(=O)NO)cc3o2)cc1` [Example 51, 2-(4-tert-butylphenyl)-N-hydroxy-1,3-benzoxazole-6-carboxamide], the half-maximal inhibitory concentration (IC50) on HDAC6 (setting [1]) turned out to be 22 nM.

With `COc1ccc(CN(CCN(C)C)c2nc3cc(C(=O)NO)ccc3o2)cc1OC` [Example 244, 2-{(3,4-dimethoxybenzyl)[2-(dimethylamino)ethyl]amino}-N-hydroxy-1,3-benzoxazole-5-carboxamide trifluoroacetate], the IC50 at HDAC6 (setting [1]) is 63 nM.

Turning to `CN(Cc1ccccc1)c1nc2cc(C(=O)NO)ccc2n1C` [Example 139, 2-(benzyl(methyl)amino)-N-hydroxy-1-methyl-1H-benzo[d]imidazole-5-carboxamide], the IC50 at HDAC6 (setting [1]) was 30 nM.

On to `Cn1c(NCCc2ccccc2)nc2cc(C(=O)NO)ccc21` [Example 140, N-hydroxy-1-methyl-2-(phenethylamino)-1H-benzo[d]imidazole-5-carboxamide], for which the IC50 at HDAC6 (setting [1]) came out at 10 nM.

Turning to `Cc1ccc(Nc2nc3cc(C(=O)NO)ccc3o2)cc1` [Example 263, N-hydroxy-2-[(4-methylphenyl)amino]-1,3-benzoxazole-5-carboxamide], the IC50 on HDAC6 (setting [1]) amounted to 9 nM.
